Assay results reported in patent US9458172B2, “Pyridinyl and pyrimidinyl sulfoxide and sulfone derivatives” (priority 2012, dated 2016).
pIC50: −log10 of the molar value. Read-outs that look alike come from different tables or passages of the source.

Legend:
[1] = system: A2780 cells; assay: In-Vitro Cell Proliferation Assay (SRB)
[2] = biological target: NAMPT (Homo sapiens (Human), UniProt P43490); assay: Biochemical Inhibition Assay (NAMPT enzymatic reaction, NMN quantified by mass spectrometry); settings: 33 nM recombinant His-tagged NAMPT, 1 μM NAM, 30 min at rt
Chain of NAMPT (P43490 whole entry): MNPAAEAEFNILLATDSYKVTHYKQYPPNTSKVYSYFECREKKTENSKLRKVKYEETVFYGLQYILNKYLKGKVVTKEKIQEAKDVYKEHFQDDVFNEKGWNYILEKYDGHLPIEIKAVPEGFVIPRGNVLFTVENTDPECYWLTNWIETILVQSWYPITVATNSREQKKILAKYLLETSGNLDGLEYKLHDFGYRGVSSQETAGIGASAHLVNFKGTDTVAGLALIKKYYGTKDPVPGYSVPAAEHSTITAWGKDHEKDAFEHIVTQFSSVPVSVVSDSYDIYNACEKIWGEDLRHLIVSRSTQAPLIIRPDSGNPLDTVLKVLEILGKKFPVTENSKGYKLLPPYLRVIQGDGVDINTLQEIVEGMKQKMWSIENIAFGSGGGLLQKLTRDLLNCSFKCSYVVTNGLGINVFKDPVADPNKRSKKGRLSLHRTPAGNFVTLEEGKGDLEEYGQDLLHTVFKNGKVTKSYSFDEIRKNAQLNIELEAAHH
Summary of the method: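 His-tagged human NAMPT from E. coli preincubated 15 min at rt with compound in 50 mM Hepes pH 7.5, 50 mM NaCl, 5 mM MgCl2, 1 mM THP, then reacted 30 min at rt with 1 μM NAM, […] PRPP, 2.5 mM ATP. NMN quantified by RapidFire mass spectrometry, normalized to L-Cystathionine, background subtracted.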

[3] = Homo sapiens, A2780, 72 h, read-out: Cell Proliferation (IC50)
[4] = Homo sapiens, A2780, 72 h, read-out: Cell Proliferation (IC50), A2780 cells, 72 h, sulforhodamine B
[5] = read-out: Cell Proliferation (IC50), A2780 cells, 72 h, sulforhodamine B

pIC50 [1, 3]	pIC50 [2]	pIC50 [1, 4]	pIC50 [1, 5]	SMILES
7.08	7.64			CC(C)n1cc(S(=O)(=O)c2ccc(CNC(=O)N3Cc4ccncc4C3)nc2)cn1 [Example 80, 1,3-Dihydro-pyrrolo[3,4-c]pyridine-2-carboxylic acid [5-(1-isopropyl-1H-pyrazole-4-sulfonyl)-pyridin-2-ylmethyl]-amide]
	7.49	6.58		CCn1cc(S(=O)(=O)c2ccc(CNC(=O)N3Cc4ccncc4C3)nc2)cn1 [Example 177, N-[[5-(1-ethylpyrazol-4-yl)sulfonyl-2-pyridyl]methyl]-1,3-dihydropyrrolo[3,4-c]pyridine-2-carboxamide]
6.52	6.77			O=C(NCc1ccc(S(=O)(=O)C2CCOCC2)cn1)c1cc2ccncc2o1 [Example 51, Furo[2,3-c]pyridine-2-carboxylic acid [5-(tetrahydro-pyran-4-sulfonyl)-pyridin-2-ylmethyl]-amide]
	7.70		7.71	O=C(NCc1ccc([S+]([O-])c2cc(F)cc(F)c2)cn1)N1Cc2ccncc2C1 (single isomer, unassigned; enantiomer 2) [Example 160, N-[[5-(3,5-difluorophenyl)sulfinyl-2-pyridyl]methyl]-1,3-dihydropyrrolo[3,4-c]pyridine-2-carboxamide (enantiomer 2)]
8.55	8.55			COc1ccc(S(=O)(=O)c2ccc(CNC(=O)c3cc4ccncc4o3)nc2)cc1OC [Example 66, Furo[2,3-c]pyridine-2-carboxylic acid [5-(3,4-dimethoxy-benzenesulfonyl)-pyridin-2-ylmethyl]-amide]
5.87	5.76			O=C(NCc1ccc(S(=O)(=O)C2CCN(CC(F)(F)F)CC2)cn1)c1cnc2[nH]ncc2c1 [Example 153, N-[[5-[[1-(2,2,2-trifluoroethyl)-4-piperidyl]sulfonyl]-2-pyridyl]methyl]-1H-pyrazolo[3,4-b]pyridine-5-carboxamide]
7.82	7.59			O=C(NCc1ccc(S(=O)(=O)C2CCN(C3COC3)CC2)cn1)c1cc2ccncc2s1 [Example 56, Thieno[2,3-c]pyridine-2-carboxylic acid [5-(1-oxetan-3-yl-piperidine-4-sulfonyl)-pyridin-2-ylmethyl]-amide]
7.26	7.26			N#Cc1cccc(S(=O)(=O)c2ccc(CNC(=O)c3cc4ccncc4o3)nc2)c1 [Example 151, N-[[5-(3-cyanophenyl)sulfonyl-2-pyridyl]methyl]furo[2,3-c]pyridine-2-carboxamide]
6.66	6.54			O=C(NCc1ccc(S(=O)(=O)c2cccc(N3CCOCC3)c2)cn1)c1cnc2[nH]ncc2c1 [Example 157, N-[[5-(3-morpholinophenyl)sulfonyl-2-pyridyl]methyl]-1H-pyrazolo[3,4-b]pyridine-5-carboxamide]
6.26	7.04			O=C(NCc1ccc(S(=O)(=O)C2CCOCC2)cn1)c1cc2ccncc2s1 [Example 53, Thieno[2,3-c]pyridine-2-carboxylic acid [5-(tetrahydro-pyran-4-sulfonyl)-pyridin-2-ylmethyl]-amide]
7.28	6.60			O=C(NCc1ccc(S(=O)(=O)C2CCN(C3CCOCC3)CC2)cn1)c1ccc2nccn2c1 [Example 161, N-[[5-[(1-tetrahydropyran-4-yl-4-piperidyl)sulfonyl]-2-pyridyl]methyl]imidazo[1,2-a]pyridine-6-carboxamide]
	6.45	6.34		O=C(NCc1ncc(S(=O)(=O)c2ccccc2)cn1)c1ccc2nccn2c1 [Example 8, Imidazo[1,2-a]pyridine-6-carboxylic acid (5-benzenesulfonyl-pyrimidin-2-ylmethyl)-amide]
7.21	6.95			O=C(NCc1ccc(S(=O)(=O)C2CCN(CC(F)(F)F)CC2)cn1)N1Cc2ccncc2C1 [Example 143, N-[[5-[[1-(2,2,2-trifluoroethyl)-4-piperidyl]sulfonyl]-2-pyridyl)methyl]-1,3-dihydropyrrolo[3,4-c]pyridine-2-carboxamide]
6.59	6.66			O=C(NCc1ccc(S(=O)(=O)N2CCN(C3COC3)CC2)cn1)N1Cc2ccncc2C1 [Example 142, N-[[5-[4-(oxetan-3-yl)piperazin-1-yl]sulfonyl-2-pyridyl]methyl]-1,3-dihydropyrrolo[3,4-c]pyridine-2-carboxamide]
6.91	7.69			O=C(NCc1ccc(S(=O)(=O)c2ccc(C(F)(F)F)nc2)cn1)c1cc2ccncc2o1 [Example 79, Furo[2,3-c]pyridine-2-carboxylic acid [5-(6-trifluoromethyl-pyridine-3-sulfonyl)-pyridin-2-ylmethyl]-amide]
7.73	8.10			O=C(NCc1ccc([S+]([O-])c2cccc(OC(F)(F)F)c2)cn1)N1Cc2ccncc2C1 (racemic) [Example 89, 1,3-Dihydro-pyrrolo[3,4-c]pyridine-2-carboxylic acid [5-(3-trifluoromethoxy-benzenesulfinyl)-pyridin-2-ylmethyl]-amide (racemic)]
	7.50	7.40		O=C(NCc1ccc([S+]([O-])c2cccc(OC(F)(F)F)c2)cn1)c1ccc2nccn2c1 (racemic) [Example 101, Imidazo[1,2-a]pyridine-6-carboxylic acid [5-(3-trifluoromethoxy-benzenesulfinyl)-pyridin-2-ylmethyl]-amide (racemic)]
5.70	6.69			O=C(NCc1ccc(S(=O)(=O)C2CCNCC2)cn1)c1cc2ccncc2o1 [Example 26, Furo[2,3-c]pyridine-2-carboxylic acid [5-(piperidine-4-sulfonyl)-pyridin-2-ylmethyl]-amide]
	6.39		6.02	O=C(NCc1ccc([S+]([O-])c2cc(F)cc(F)c2)cn1)c1ccc2nccn2c1 (racemic) [Example 58, Imidazo[1,2-a]pyridine-6-carboxylic acid [5-(3,5-difluoro-benzenesulfinyl)-pyridin-2-ylmethyl]-amide (racemic)]
	6.20		5.70	O=C(NCc1ccc([S+]([O-])c2cc(F)cc(F)c2)cn1)N1Cc2ccncc2C1 (single isomer, unassigned; enantiomer 1) [Example 159, N-[[5-(3,5-difluorophenyl)sulfinyl-2-pyridyl]methyl]-1,3-dihydropyrrolo[3,4-c]pyridine-2-carboxamide (enantiomer 1)]
6.33	7.00			Cn1cc(S(=O)(=O)c2ccc(CNC(=O)c3ccc4nccn4c3)nc2)cn1 [Example 36, Imidazo[1,2-a]pyridine-6-carboxylic acid [5-(1-methyl-1H-pyrazole-4-sulfonyl)-pyridin-2-ylmethyl]-amide]
7.05	7.13			N#Cc1cccc(S(=O)(=O)c2ccc(CNC(=O)c3ccc4nccn4c3)nc2)c1 [Example 155, N-[[5-(3-cyanophenyl)sulfonyl-2-pyridyl]methyl]imidazo[1,2-a]pyridine-6-carboxamide]
8.17	7.64			O=C(NCc1ccc(S(=O)(=O)c2cnc(N3CCOCC3)nc2)cn1)c1ccc2nccn2c1 [Example 167, N-[[5-(2-morpholinopyrimidin-5-yl)sulfonyl-2-pyridyl]methyl]imidazo[1,2-a]pyridine-6-carboxamide]
7.33	6.99			COCC(=O)N1CCC(S(=O)(=O)c2ccc(CNC(=O)c3cc4ccncc4o3)nc2)CC1 [Example 122, N-[[5-[[1-(2-methoxyacetyl)-4-piperidyl]sulfonyl]-2-pyridyl]methyl]furo[2,3-c]pyridine-2-carboxamide]
6.53	5.74			O=C(NCc1ccc(S(=O)(=O)C2CCN(C3CCOCC3)CC2)cn1)c1cnc2[nH]ncc2c1 [Example 162, N-[[5-[(1-tetrahydropyran-4-yl-4-piperidyl)sulfonyl]-2-pyridyl]methyl]-1H-pyrazolo[3,4-b]pyridine-5-carboxamide]
8.07	8.64			CN1CCN(c2ccc(S(=O)(=O)c3ccc(CNC(=O)c4cnc5nccn5c4)nc3)cc2)CC1 [Example 48, Imidazo[1,2-a]pyrimidine-6-carboxylic acid {5-[4-(4-methyl-piperazin-1-yl)-benzenesulfonyl]-pyridin-2-ylmethyl)-amide]
7.69	7.56			CN(C)c1ccc(S(=O)(=O)c2ccc(CNC(=O)c3cnc4[nH]ncc4c3)nc2)cn1 [Example 84, 1H-Pyrazolo[3,4-b]pyridine-5-carboxylic acid [5-(6-dimethylamino-pyridine-3-sulfonyl)-pyridin-2-ylmethyl]-amide]
8.22	8.17			CCN(C)c1ncc(S(=O)(=O)c2ccc(CNC(=O)N3Cc4ccncc4C3)nc2)s1 [Example 147, N-[[5-[2-[ethyl(methyl)amino]thiazol-5-yl]sulfonyl-2-pyridyl]methyl]-1,3-dihydropyrrolo[3,4-c]pyridine-2-carboxamide]
8.14	7.71			O=C(NCc1ccc(S(=O)(=O)c2ccc(N3CCOCC3)cc2)cn1)c1cnc2[nH]ncc2c1 [Example 31, 1H-Pyrazolo[3,4-b]pyridine-5-carboxylic acid [5-(4-morpholin-4-yl-benzenesulfonyl)-pyridin-2-ylmethyl]-amide]

SMILES	pIC50 [1, 3]	pIC50 [2]	pIC50 [1, 4]	pIC50 [1, 5]
O=C(NCc1ccc([S+]([O-])C2CCN(CC(F)(F)F)CC2)cn1)c1cc2ccncc2o1 (stereo not drawn) [Example 118, N-[[5-[[1-(2,2,2-trifluoroethyl)-4-piperidyl]sulfinyl]-2-pyridyl]rnethyl]furo[2,3-c]pyridine-2-carboxamide]		7.12		7.91
